In patent publication US7772230B2, “Chroman compound, processes for its preparation, and its pharmaceutical use” (China Pharmaceutical University, priority 2006, dated 2010):

Tests used:
[1] = biological target: T1, slowly delayed rectifier potassium channel current (IKs) (Cavia porcellus, UniProt O70344); experiment: whole cell patch clamp on isolated Guinea pig myocardial cells, IKs; assay type: cell-based; conditions: Guinea pig ventricular myocytes, current recorded 10 min after administration, 25-30° C.
T1 construct: the Guinea pig myocardial cells are separated with enzymolysis; endogenous in cells; host or cells: freshly isolated guinea pig ventricular myocytes
T1 sequence (O70344 1-671): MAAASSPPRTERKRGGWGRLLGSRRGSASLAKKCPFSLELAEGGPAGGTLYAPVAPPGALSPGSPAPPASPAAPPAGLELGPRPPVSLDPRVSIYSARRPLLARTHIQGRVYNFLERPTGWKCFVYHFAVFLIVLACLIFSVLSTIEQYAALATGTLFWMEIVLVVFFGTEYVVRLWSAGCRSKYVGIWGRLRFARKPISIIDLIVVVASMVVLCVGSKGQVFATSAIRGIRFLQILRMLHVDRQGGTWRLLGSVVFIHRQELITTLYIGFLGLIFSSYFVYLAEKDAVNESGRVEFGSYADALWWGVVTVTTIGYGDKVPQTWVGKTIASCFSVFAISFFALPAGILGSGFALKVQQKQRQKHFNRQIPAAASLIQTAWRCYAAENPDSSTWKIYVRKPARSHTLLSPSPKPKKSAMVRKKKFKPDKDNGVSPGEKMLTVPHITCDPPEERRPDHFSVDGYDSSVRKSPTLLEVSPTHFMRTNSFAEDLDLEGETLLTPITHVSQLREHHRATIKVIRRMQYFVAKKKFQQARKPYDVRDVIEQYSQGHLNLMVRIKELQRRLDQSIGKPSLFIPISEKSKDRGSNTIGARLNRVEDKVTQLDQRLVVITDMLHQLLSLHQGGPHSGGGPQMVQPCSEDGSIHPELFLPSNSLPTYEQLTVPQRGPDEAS
T1 sequence (P41686 1-245 partner): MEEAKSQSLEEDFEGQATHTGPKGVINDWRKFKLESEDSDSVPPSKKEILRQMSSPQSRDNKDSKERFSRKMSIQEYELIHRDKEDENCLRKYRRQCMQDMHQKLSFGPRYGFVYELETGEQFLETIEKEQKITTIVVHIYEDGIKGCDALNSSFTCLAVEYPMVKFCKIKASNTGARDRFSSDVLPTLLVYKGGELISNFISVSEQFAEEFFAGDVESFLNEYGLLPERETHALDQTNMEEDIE
Protocol: (§1) Experimental title: using vitro pachynsis myocardial cells of Guinea pig, the activity is determined by the whole cell membrane Patch clamp technology.
(§2) experimental mechanism: the Guinea pig myocardial cells are separated with enzymolysis, and the rapid activation component and the slowly activation component of the delayed commutating current in the cardiac muscle cells are recorded by whole cell membrane Patch clamp. Each compound is added to the perfuse liquid for measuring current after dissolved at least 10 min. The collected data is analyzed in pulse-fit, the IC50 value for IKr and IKs of each compound is calculated.
(§3) animals: Guinea pigs, male, weight 300-400 g.
(§4) solution: calcium free Tyrode's solution
(§5) pole inner solution (mmol/L): KCl 140, MgCl2 1.0, K2-ATP 4.0, EGTA 10, HEPES 5.0, pH=7.2
(§6) Experimental apparatus: Patch clamp magnifier (EPC-10, Germany), inverted microscope (TE-2000U, Nikon, Japan), microelectrode puller (PIP5, Germany), micro-manipulator (PCS-5000, Burleigh, USA).
(§7) Then, the hearts are taken off, their ventricle are cut to smash and incubated in fresh enzyme solution at 37° C., the solution is gently stirred for 5-10 min, pouring off the supernatant fluid, diluted with Tyrode's solution containing CaCl2 1 mmol/L, that is for the first cell stored liquor; with the same operation to obtain the second and the third cell storages. […] The cells are laid for 2 h before use.
(§8) the cell liquor is put into the cell pool, after the cells adhering to the wall, they are perfused with outer liquor of the cells at the rate of 2 ml/min, cells that having calcium resistance and clear transverse striations are to be selected, the poles are moved to the cell surface by tridimensional manipulator. The high resistance block are formed between the pole top and the cell surface by under pressure, and more over using reduced pressure to broking cell membrane, the pole inner liquor can be connected to the cell inner liquor so as to form the whole cell state. After the compensation to the capacitance and series impedance compensation the voltage tongs are recorded. The signal is led by Ag/AgCl pole and magnified by the Patch clamp magnifier, the computer dispenses presetting stimulate pulse by procedure and add to cells, and the electrical signal generated from cells is translated by transducer, and stored in computer. All of the stimulate signal control, electric current, data sampling and analyses are carried out by pulse V8.60. Azimilide is used as positive drugs in the research. Each test compound is dissolved in anhydrous ethanol, diluted to the same concentration by water, and added to outer cell liquor, the top concentration of ethanol is 0.1%.
(§9) Stimulate parameter: the record of IKr and IKS: the back value of the either current is recorded. Using extra-cellular fluid containing 0.1 mmol/L CdCl2 for perfusion, sustaining the voltage at −50 mV, depolarized to 60 mV, keeping for 500 ms, and sustaining the voltage at −50 mV, keeping for 1000 ms, recording IKr; and then binding the voltage at −50 mV for 1000 ms, recording IKs.

[2] = biological target: T2, rapidly delayed rectifier potassium channel current (IKr) (Cavia porcellus, UniProt O08703); experiment: whole cell patch clamp on isolated Guinea pig myocardial cells, IKr; assay type: cell-based; conditions: Guinea pig ventricular myocytes, current recorded 10 min after administration, 25-30° C.
T2 construct: the Guinea pig myocardial cells are separated with enzymolysis; endogenous in cells; host or cells: freshly isolated guinea pig ventricular myocytes
T2 sequence (O08703 1-1294): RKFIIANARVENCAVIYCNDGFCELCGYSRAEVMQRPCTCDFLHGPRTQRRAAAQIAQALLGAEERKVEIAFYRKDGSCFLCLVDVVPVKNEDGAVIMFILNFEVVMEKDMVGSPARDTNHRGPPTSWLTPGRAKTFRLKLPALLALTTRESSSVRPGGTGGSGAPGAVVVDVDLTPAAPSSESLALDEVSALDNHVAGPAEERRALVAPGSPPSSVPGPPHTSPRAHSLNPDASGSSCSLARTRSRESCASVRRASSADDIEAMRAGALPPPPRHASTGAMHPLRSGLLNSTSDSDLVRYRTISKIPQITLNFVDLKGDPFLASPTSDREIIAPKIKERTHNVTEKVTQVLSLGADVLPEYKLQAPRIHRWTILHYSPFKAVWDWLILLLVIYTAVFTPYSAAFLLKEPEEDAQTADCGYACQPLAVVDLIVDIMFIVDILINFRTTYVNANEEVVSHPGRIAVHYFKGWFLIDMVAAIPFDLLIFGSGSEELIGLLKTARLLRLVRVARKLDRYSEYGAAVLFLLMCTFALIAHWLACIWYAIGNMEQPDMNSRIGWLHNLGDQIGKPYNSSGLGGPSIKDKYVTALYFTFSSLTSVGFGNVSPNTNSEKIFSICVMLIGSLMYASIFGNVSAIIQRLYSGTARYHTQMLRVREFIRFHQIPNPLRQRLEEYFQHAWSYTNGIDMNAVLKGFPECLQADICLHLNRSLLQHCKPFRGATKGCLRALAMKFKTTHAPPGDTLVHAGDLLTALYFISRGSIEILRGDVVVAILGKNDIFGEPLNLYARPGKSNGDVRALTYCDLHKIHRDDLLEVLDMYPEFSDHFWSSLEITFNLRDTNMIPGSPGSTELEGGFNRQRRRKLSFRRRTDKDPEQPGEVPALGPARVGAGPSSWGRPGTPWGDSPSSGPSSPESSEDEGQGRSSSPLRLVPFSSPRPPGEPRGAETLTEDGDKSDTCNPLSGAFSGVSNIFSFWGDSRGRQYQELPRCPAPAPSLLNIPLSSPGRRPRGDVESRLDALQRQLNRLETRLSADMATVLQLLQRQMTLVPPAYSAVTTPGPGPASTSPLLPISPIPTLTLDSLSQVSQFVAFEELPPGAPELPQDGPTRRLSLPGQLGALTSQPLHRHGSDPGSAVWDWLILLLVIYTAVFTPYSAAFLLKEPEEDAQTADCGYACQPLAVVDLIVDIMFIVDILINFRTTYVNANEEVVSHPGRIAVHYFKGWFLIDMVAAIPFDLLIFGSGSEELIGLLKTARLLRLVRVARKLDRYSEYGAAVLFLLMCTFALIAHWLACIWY
Protocol: as §1, §2, §3, §4, §5, §6, §7, §8, §9

melting point | IC50 [1] | SMILES | IC50 [2]
203 to 205 °C |  | CN1CCN(CCCCN2C(=O)CN(/N=C3\CCOc4ccc(O)cc43)C2=O)CC1.O=C(O)/C=C/C(=O)O | 
225 to 227 °C |  | CCOc1ccc2c(c1)/C(=N/N1CC(=O)N(CCCCN3CCN(C)CC3)C1=O)CCO2.O=C(O)/C=C/C(=O)O | 
231 to 233 °C |  | Cc1ccc2c(c1)/C(=N/N1CC(=O)N(CCCCN3CCN(C)CC3)C1=O)CCO2.O=C(O)/C=C/C(=O)O | 
208 to 210 °C | 650 nM | COc1ccc2c(c1)/C(=N/N1CC(=O)N(CCCCN3CCN(C)CC3)C1=O)CCO2.O=C(O)/C=C/C(=O)O [Ia example 1, 1-[4-(2,3-dihydro-6-methoxy)benzopyran]imino-3-[4-(methyl-1-piperazine)butyl]-2,4-imidazole dione difumarate] | 1010 nM
230 to 232 °C | 73 nM | CN1CCN(CCCCN2C(=O)CN(/N=C3\CCOc4ccc(Cl)cc43)C2=O)CC1.O=C(O)/C=C/C(=O)O [Ia example 2, 1-[4-(2,3-dihydro-6-chloro)benzopyran]imino-3-[4-(methyl-1-piperazine)butyl]-2,4-imidazole dione difumarate] | 4700 nM
192 to 194 °C | 330 nM | CN1CCN(CCCCN2C(=O)CN(/N=C3\CCOc4ccc(C(N)=O)cc43)C2=O)CC1.O=C(O)/C=C/C(=O)O [Ia example 4, 1-[4-(2,3-dihydro-6-carbamoyl)benzopyran]imino-3-[4-(methyl-1-piperazine)butyl]-2,4-imidazole dione difumarate] | 450 nM
 | 22000 nM | COc1ccc2c(c1)/C(=N/N1CC(=O)N(CCCCN3CCCCC3)C1=O)CCO2 [Ia example 5, 1-[4-(2,3-dihydro-6-methoxy)benzopyran]imino-3-(4-piperidine) butyl-2,4-imidazole dione] | 7470 nM
 | 61000 nM | O=C1CN(/N=C2\CCOc3ccc(Cl)cc32)C(=O)N1CCCCN1CCCCC1 [Ia example 6, 1-[4-(2,3-dihydro-6-chloro)benzopyran]imino-3-(4-piperidine) butyl-2,4-imidazole dione] | 6.2 nM
 | 18900 nM | Cc1ccc2c(c1)/C(=N/N1CC(=O)N(CCCCN3CCCCC3)C1=O)CCO2 [Ia example 7, 1-[4-(2,3-dihydro-6-methyl)benzopyran]imino-3-(4-piperidine) butyl-2,4-imidazole dione] | 22000 nM
 | 1.9 nM | COc1ccc2c(c1)/C(=N/N1CC(=O)N(CCCN3CCN(C)CC3)C1=O)CCO2 [Ia example 8, 1-[4-(2,3-dihydro-6-methoxy)benzopyran]imino-3-[3-(4-methylpiperazine-1-yl)propyl]-2,4-imidazole dione difumarate] | 540 nM
 | 304 nM | Cc1ccc2c(c1)/C(=N/N1CC(=O)N(CCCN3CCN(C)CC3)C1=O)CCO2 [Ia example 9, 1-[4-(2,3-dihydro-6-methyl)benzopyran]imino-3-[3-(4-methylpiperazine-1-)propyl]-2,4-imidazole dione difumarate] | 619 nM
 | 1040 nM | CCOc1ccc2c(c1)/C(=N/N1CC(=O)N(CCCCN3CCCCC3)C1=O)CCO2 [Ib example 5, 1-[4-(2,3-dihydro-6-ethoxy)benzopyran]imino-3-(4-piperidine) butyl-2,4-imidazole dione] | 450 nM
 | 3.2 nM | CCCOc1ccc2c(c1)/C(=N/N1CC(=O)N(CCCCN3CCCCC3)C1=O)CCO2 [Ib example 6, 1-[4-(2,3-dihydro-6-propoxy-)benzopyran]imino-3-(4-piperidine) butyl-2,4-imidazole dione] | 400 nM
 | 26.9 nM | CCOc1ccc2c(c1)/C(=N/N1CC(=O)N(CCCN3CCN(C)CC3)C1=O)CCO2 [Ib example 9, 1-[4-(2,3-dihydro-6-ethoxy)benzopyran]imino-3-[3-(4-methylpiperazine-1-yl)propyl]-2,4-imidazole dione difumarate] | 4340 nM
 | 9.5 nM | CCCOc1ccc2c(c1)/C(=N/N1CC(=O)N(CCCN3CCN(C)CC3)C1=O)CCO2 [Ib example 10, 1-[4-(2,3-dihydro-6-propoxy-)benzopyran]imino-3-[3-(4-methylpiperazine-1-yl)propyl]-2,4-imidazole dione difumarate] | 106 nM

SMILES | melting point | IC50 [1] | IC50 [2]
CN1CCN(CCCN2C(=O)CN(N=C3CCOc4ccc(Cl)cc43)C2=O)CC1 [Ia example 10, 1-[4-(2,3-dihydro-6-chlorine)benzopyran]imino-3-[3-(4-methylpiperazine-1-yl)propyl]-2,4-imidazole dione difumarate] |  | 5.8 nM | 3870 nM
CCCCOc1ccc2c(c1)/C(=N/N1CC(=O)N(CCCCN3CCCCC3)C1=O)CCO2 [Ib example 7, 1-[4-(2,3-dihydro-6-butoxy)benzopyran]imino-3-(4-piperidine) butyl-2,4-imidazole dione] |  | 1030 nM | 17.4 nM
